PubChem BioAssay AID270 (DTP/NCI, 2004)
Results filed as inconclusive are left out.

Tested on: BDF1 mice, s.c. Lewis lung carcinoma, T/C %
Assay: NCI In Vivo Anticancer Drug Screen. Data for tumor model Lewis Lung Carcinoma (subcutaneous) in B6D2F1 (BDF1) mice
Procedure: The antitumor activity of compounds was measured in mice bearing transplantable tumors. Survival or tumor size were measured and the results are expressed as the measurement made in the treated group (T) divided by the measurement made in the vehicle treated control group (C). The tumor model used in this assay is Lewis Lung Carcinoma (subcutaneous) in B6D2F1 (BDF1) mice

[1] = endpoint: median survival time, dose: 50.0 mg/kg/injection, schedule: Q01DX009 (ip), vehicle: water, higher = longer survival

Question: What does the source list for CCCCSc1nc(N)nc2c1ncn2CC(C)CC (centres undefined)?
Answer: T/C (endpoint: mean tumor weight, dose: 75.0 mg/kg/injection, schedule: Q01DX011 (ip), vehicle: other, higher = larger tumour): 103 % of control; T/C (endpoint: mean tumor weight, dose: 150.0 mg/kg/injection, schedule: Q01DX011 (ip), vehicle: other, higher = larger tumour): 50 % of control; T/C (endpoint: mean tumor weight, dose: 300.0 mg/kg/injection, schedule: Q01DX011 (ip), vehicle: other, higher = larger tumour): 53 % of control

Question: With Cc1nc(N)c(C)c(C(=O)O)n1 as the molecule, how does the T/C [1] read?
Answer: 113 % of control

Question: And the T/C (endpoint: median survival time, dose: 100.0 mg/kg/injection, schedule: Q01DX009 (ip), vehicle: water, higher = longer survival)?
Answer: 117 % of control

Question: What about the T/C (endpoint: median survival time, dose: 200.0 mg/kg/injection, schedule: Q01DX009 (ip), vehicle: water, higher = longer survival) of the same molecule?
Answer: 116 % of control

Question: CC1(C)C(CC(=O)O)CC1C(=O)O (centres undefined) was tested. Which T/C (endpoint: mean tumor weight, dose: 166.0 mg/kg/injection, schedule: Q01DX011 (ip), vehicle: other, higher = larger tumour) did it give?
Answer: 78 % of control

Question: For CO[C@H](C(=O)[C@@H](O)[C@@H](C)O)[C@@H]1Cc2cc3cc(OC4CC(OC5CC(O)C(O)C(C)O5)C(O)C(C)O4)c(C)c(O)c3c(O)c2C(=O)[C@H]1OC1CC(OC2CC(OC3CC(C)(O)C(O)C(C)O3)C(O)C(C)O2)C(O)C(C)O1 (some centres undefined), which T/C (endpoint: median survival time, dose: 0.25 mg/kg/injection, schedule: Q01DX009 (ip), vehicle: saline, higher = longer survival) is on record?
Answer: 116 % of control

Question: Which results are given for C[C@@H]1CCC[C@@H](NC(=O)N(CCCl)N=O)C1?
Answer: T/C (endpoint: median survival time, dose: 4.68 mg/kg/injection, schedule: Q01DX009 (ip), vehicle: Klucel (hydroxypropylcellulose) (HPC), higher = longer survival): 97 % of control; T/C (endpoint: median survival time, dose: 9.37 mg/kg/injection, schedule: Q01DX009 (ip), vehicle: Klucel (hydroxypropylcellulose) (HPC), higher = longer survival): 98 % of control; T/C (endpoint: median survival time, dose: 18.75 mg/kg/injection, schedule: Q01DX009 (ip), vehicle: Klucel (hydroxypropylcellulose) (HPC), higher = longer survival): 108 % of control

Question: Which T/C (endpoint: mean tumor weight, dose: 0.25 mg/kg/injection, schedule: Q01DX011 (ip), vehicle: other, higher = larger tumour) does the source give for COC(=O)c1nc(-c2ccc3c(n2)C(=O)C(N)=C(OC)C3=O)c(N)c(-c2ccc(OC)c(OC)c2O)c1C here?
Answer: 65 % of control

Question: And the T/C (endpoint: mean tumor weight, dose: 0.5 mg/kg/injection, schedule: Q01DX011 (ip), vehicle: other, higher = larger tumour)?
Answer: 70 % of control

Question: And the T/C (endpoint: mean tumor weight, dose: 1.0 mg/kg/injection, schedule: Q01DX011 (ip), vehicle: other, higher = larger tumour)?
Answer: 45 % of control

Question: How did the T/C (endpoint: median survival time, dose: 0.22 mg/kg/injection, schedule: Q01DX009 (ip), vehicle: saline, higher = longer survival) turn out when Oc1cc(N2CC2)c(O)cc1N1CC1 was run?
Answer: 106 % of control

Question: And the T/C (endpoint: median survival time, dose: 0.44 mg/kg/injection, schedule: Q01DX009 (ip), vehicle: saline, higher = longer survival)?
Answer: 105 % of control

Question: And the T/C (endpoint: median survival time, dose: 0.68 mg/kg/injection, schedule: Q01DX009 (ip), vehicle: saline, higher = longer survival)?
Answer: 110 % of control

Question: And the T/C (endpoint: median survival time, dose: 1.0 mg/kg/injection, schedule: Q01DX009 (ip), vehicle: saline, higher = longer survival)?
Answer: 90 % of control

Question: Which T/C (endpoint: median survival time, dose: 1.56 mg/kg/injection, schedule: Q01DX009 (ip), vehicle: water, higher = longer survival) does the source give for N=C(N)NC(=N)Nc1ccc(NC(=O)Nc2ccc(Nc3c4ccccc4nc4cc([N+](=O)[O-])ccc34)cc2)cc1 here?
Answer: 111 % of control

Question: And the T/C (endpoint: median survival time, dose: 6.25 mg/kg/injection, schedule: Q01DX009 (ip), vehicle: water, higher = longer survival)?
Answer: 108 % of control

Question: And the T/C (endpoint: median survival time, dose: 12.5 mg/kg/injection, schedule: Q01DX009 (ip), vehicle: water, higher = longer survival)?
Answer: 112 % of control

Question: What about the T/C (endpoint: median survival time, dose: 25.0 mg/kg/injection, schedule: Q01DX009 (ip), vehicle: water, higher = longer survival) of the same molecule?
Answer: 103 % of control

Question: And the T/C [1]?
Answer: 112 % of control

Question: O=C(Nc1ccc(C2=NCCN2)cc1)c1ccc(C(=O)Nc2ccc(C3=NCCN3)cc2)c(Cl)c1 was tested. Which T/C (endpoint: mean tumor weight, dose: 5.0 mg/kg/injection, schedule: Q01DX011 (ip), vehicle: carboxymethylcellulose (CMC), higher = larger tumour) did it give?
Answer: 73 % of control

Question: What about the T/C (endpoint: mean tumor weight, dose: 10.0 mg/kg/injection, schedule: Q01DX011 (ip), vehicle: carboxymethylcellulose (CMC), higher = larger tumour) of the same molecule?
Answer: 51 % of control

Question: And the T/C (endpoint: mean tumor weight, dose: 20.0 mg/kg/injection, schedule: Q01DX011 (ip), vehicle: carboxymethylcellulose (CMC), higher = larger tumour)?
Answer: 81 % of control

Question: With COc1ccc(NC(=O)N(CCCl)N=O)cc1OC as the molecule, how does the T/C (endpoint: median survival time, dose: 1.56 mg/kg/injection, schedule: Q01DX009 (ip), vehicle: Klucel (hydroxypropylcellulose) (HPC), higher = longer survival) read?
Answer: 97 % of control

Question: And the T/C (endpoint: median survival time, dose: 3.12 mg/kg/injection, schedule: Q01DX009 (ip), vehicle: Klucel (hydroxypropylcellulose) (HPC), higher = longer survival)?
Answer: 100 % of control

Question: What about the T/C (endpoint: median survival time, dose: 6.25 mg/kg/injection, schedule: Q01DX009 (ip), vehicle: Klucel (hydroxypropylcellulose) (HPC), higher = longer survival) of the same molecule?
Answer: 106 % of control

Question: And the T/C (endpoint: median survival time, dose: 12.5 mg/kg/injection, schedule: Q01DX009 (ip), vehicle: Klucel (hydroxypropylcellulose) (HPC), higher = longer survival)?
Answer: 101 % of control

Question: What about the T/C (endpoint: median survival time, dose: 25.0 mg/kg/injection, schedule: Q01DX009 (ip), vehicle: Klucel (hydroxypropylcellulose) (HPC), higher = longer survival) of the same molecule?
Answer: 107 % of control

Question: Which T/C (endpoint: median survival time, dose: 2.5 mg/kg/injection, schedule: Q01DX009 (ip), vehicle: Klucel (hydroxypropylcellulose) (HPC), higher = longer survival) does the source give for COc1cc2c(c(OC)c1OC)-c1cc3c(cc1[C@@H](OC(C)=O)[C@@H]1COC(=O)[C@H]1C2)OCO3 here?
Answer: 94 % of control

Question: What about the T/C (endpoint: median survival time, dose: 5.0 mg/kg/injection, schedule: Q01DX009 (ip), vehicle: Klucel (hydroxypropylcellulose) (HPC), higher = longer survival) of the same molecule?
Answer: 97 % of control

Question: What about the T/C (endpoint: median survival time, dose: 10.0 mg/kg/injection, schedule: Q01DX009 (ip), vehicle: Klucel (hydroxypropylcellulose) (HPC), higher = longer survival) of the same molecule?
Answer: 95 % of control
